Structures can show the parent of a compound that is named as a salt.

The target of the test is T1, human recombinant ENPP1 enzymes (Homo sapiens, UniProt P22413).
T1 construct: purchased R & D systems
T1 sequence (P22413 1-925): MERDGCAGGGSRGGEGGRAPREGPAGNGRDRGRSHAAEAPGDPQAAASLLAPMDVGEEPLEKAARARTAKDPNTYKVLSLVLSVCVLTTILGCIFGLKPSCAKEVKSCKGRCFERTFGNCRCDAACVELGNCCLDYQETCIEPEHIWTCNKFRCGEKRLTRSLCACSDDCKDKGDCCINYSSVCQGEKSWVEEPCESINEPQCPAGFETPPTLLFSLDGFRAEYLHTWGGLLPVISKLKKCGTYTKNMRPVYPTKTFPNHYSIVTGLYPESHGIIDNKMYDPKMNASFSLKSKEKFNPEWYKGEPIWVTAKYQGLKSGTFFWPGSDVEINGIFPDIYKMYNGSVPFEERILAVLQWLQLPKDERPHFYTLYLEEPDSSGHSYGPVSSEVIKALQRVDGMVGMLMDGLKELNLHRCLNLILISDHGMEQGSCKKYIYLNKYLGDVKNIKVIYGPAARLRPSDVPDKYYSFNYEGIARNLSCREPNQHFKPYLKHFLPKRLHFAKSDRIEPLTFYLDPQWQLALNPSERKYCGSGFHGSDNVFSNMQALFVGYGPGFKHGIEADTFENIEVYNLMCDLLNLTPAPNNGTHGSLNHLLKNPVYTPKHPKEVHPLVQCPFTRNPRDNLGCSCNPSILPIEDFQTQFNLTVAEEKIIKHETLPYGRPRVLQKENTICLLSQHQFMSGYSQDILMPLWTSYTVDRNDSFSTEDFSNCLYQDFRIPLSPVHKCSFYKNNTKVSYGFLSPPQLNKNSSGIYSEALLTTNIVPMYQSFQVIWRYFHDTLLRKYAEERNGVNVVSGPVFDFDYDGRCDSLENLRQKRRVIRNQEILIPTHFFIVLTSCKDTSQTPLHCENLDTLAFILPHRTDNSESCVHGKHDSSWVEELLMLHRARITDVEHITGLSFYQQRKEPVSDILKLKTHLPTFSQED
Description: ENPP1 Enzyme Assay with cGAMP Substrate (AMP-Glo). In kind it is biochemical. The settings on record: human recombinant ENPP1, cGAMP 5 μM, 37° C. 90 minutes, AMP-Glo luminescence; read-out: Enzymatic activity (IC50). Here is the method:
ENPP1 hydrolyzes nucleotides or nucleotide derivatives to produce nucleoside-5′-monophosphate and pyrophosphate. In addition, ENPP1 hydrolyzes 2′,3′-cGAMP to produce 5′-adenosine monophosphate (AMP) and 5′-guanosine monophosphate (GMP). AMP produced from the reaction is measured using the AMP-Glo® kit (Promega). The AMP-Glo® kit contains two reagents. The first reagent terminates the AMP-producing enzymatic reaction, removes ATP and converts the produced AMP into ADP. The second reagent converts ADP into ATP which is used to generate luminescence in the luciferase reaction. The amount of luminescence measured is proportional to the amount of AMP produced by ENPP1.
The final reaction solution contains 50 mM Tris (pH 8.5) buffer, 250 mM NaCl, 0.5 mM CaCl2), 1 μM ZnCl2, 5% glycerol and 1% DMSO. Serially diluted ENPP1 inhibitors (typically in the range of 10 μM to 0.5 nM) were pre-stored with human recombinant ENPP1 enzymes (R & D systems) at 3 ng/reaction and room temperature (RT) for 5 to 10 minutes. The reaction was initiated by addition of cGAMP (at a final concentration of 5 μM) and reacted at 37° C. for 90 minutes. At the end of the reaction, 10 μl of the AMP-Glo first reagent was added to stop the reaction and the result was stored at room temperature for 1 hour. After storage, 20 μl of an AMP detection solution (a mixture of AMP-Glo II reagent and Kinase-Glo at a ratio of 1:100) was added and stored at room temperature for 1 hour. Luminescence signals were measured using a Victor® plate reader (Perkin Elmer). The maximal activity control (containing enzymes and substrates in the presence of 1% DMSO; MAX) and the minimal activity control (containing substrates and 1% DMSO; MIN) were evaluated simultaneously. In each experiment, serially diluted reference ENPP1 inhibitors were tested as well. IC50, indicating % residual activity versus compound concentration was determined by fitting inhibition curves using the 3-parameter analysis of GraphPad Prism® software. Serially diluted samples of one compound were tested two or more times and an average IC50 of each compound was calculated.
As a reminder, the IC50 is the concentration at which inhibition is half-maximal. As to `NS(=O)(=O)NCc1ccc(-n2nnc3cc(C(F)(F)F)ccc32)c(F)c1` [Example 85], the IC50 was > 10 µM.

Turning to `NS(=O)(=O)NCc1ccc(-n2nnc3cc(OCF)ccc32)c(F)c1` [Example 88], the IC50 is > 10 µM.

Turning to `NS(=O)(=O)NCc1ccc(-n2nnc3cc(OC(F)(F)F)ccc32)cc1` [Example 89], the 50% inhibitory concentration (IC50) was > 10 µM.

For `NS(=O)(=O)NCc1ccc(-n2nnc3cc(OC(F)(F)F)ccc32)c(F)c1` [Example 90], the IC50 is > 10 µM.

Turning to `NS(=O)(=O)NCc1ccc(-n2nnc3cc(OC(F)F)ccc32)c(F)c1` [Example 91], the IC50 is < 1 µM.

As for `COc1cc2nnn(-c3ccc(CNS(N)(=O)=O)cc3)c2cc1F` [Example 92, N-(4-(6-fluoro-5-methoxy-1H-benzo[d][1,2,3]triazol-1-yl)benzyl)sulfamide], the IC50 is < 1 µM.

For `COc1cc2nnn(-c3ccc(CNS(N)(=O)=O)cc3F)c2cc1F` [Example 93, N-(3-fluoro-4-(6-fluoro-5-methoxy-1H-benzo[d][1,2,3]triazol-1-yl)benzyl)sulfamide], the IC50 was < 1 µM.

For `COc1ccc2c(c1)nnn2-c1ccc2c(c1)CN(S(N)(=O)=O)C2` [Example 94, 5-(5-methoxy-1H-benzo[d][1,2,3]triazol-1-yl)isoindoline-2-sulfonamide], the half-inhibitory concentration (IC50) was < 1 µM.

Consider `COc1ccc2c(c1)nnn2-c1ccc2c(c1)CC(NS(N)(=O)=O)C2` (centres unmarked) [Example 95], for which the IC50 was < 1 µM.

As for `COc1ccc2c(c1)nnn2-c1ccc2c(c1)CCN(S(N)(=O)=O)C2` [Example 96, 6-(5-methoxy-1H-benzo[d][1,2,3]triazol-1-yl)-3,4-dihydroisoquinoline-2(1H)sulfonamide], the IC50 was < 1 µM.

In the case of `COc1ccc2c(c1)nnn2-c1ccc2c(c1)CN(S(N)(=O)=O)CC2` [Example 97, 7-(5-methoxy-1H-benzo[d][1,2,3]triazol-1-yl)-3,4-dihydroisoquinoline-2(1H)sulfonamide], the IC50 is < 1 µM.

For the compound `COc1ccc2c(c1)nnn2-c1ccc2c(c1)CN(S(N)(=O)=O)CCC2` [Example 98, 8-(5-methoxy-1H-benzo[d][1,2,3]triazol-1-yl)-1,3,4,5-tetrahydro-2H-benzo[c]azepine-2-sulfonamide], the IC50 is > 10 µM.

As for `COc1ccc2c(c1)nnn2-c1cc2c(cc1F)CN(S(N)(=O)=O)CC2` [Example 101, 7-fluoro-6-(5-methoxy-1H-benzo[d][1,2,3]triazol-1-yl)-3,4-dihydroisoquinoline-2(1H)-sulfonamide], the half-inhibitory concentration (IC50) was < 1 µM.

Regarding `COc1cc2nnn(-c3ccc4c(c3)CN(S(N)(=O)=O)C4)c2cc1OC` [Example 102, 5-(5,6-dimethoxy-1H-benzo[d][1,2,3]triazol-1-yl)-isoindoline-2-sulfonamide], the IC50 was < 1 µM.

Consider `COc1cc2nnn(-c3ccc4c(c3)CC(NS(N)(=O)=O)C4)c2cc1OC` (centres unmarked) [Example 103, N-(5-(5,6-dimethoxy-1H-benzo[d][1,2,3]triazol-1-yl)-dihydro-1H-inden-2-yl)sulfamide], for which the IC50 is < 1 µM.

`COc1ccc2c(c1)nnn2Cc1ccc(NS(N)(=O)=O)cc1` [Example 104, N-(4-((5-methoxy-1H-benzo[d][1,2,3]triazol-1-yl)methyl)phenyl)sulfamide Hydrochloride]: the IC50 was 1 to 10 µM.

On to `COc1ccc2c(c1)nnn2Cc1ccc(CNS(N)(=O)=O)cc1` [Example 105, N-(4-((5-methoxy-1H-benzo[d][1,2,3]triazol-1-yl)methyl)benzyl)sulfamide Hydrochloride], for which the IC50 is > 10 µM.

For the compound `COc1ccc2c(c1)nnn2-c1ccc(CNS(N)(=O)=O)s1` [Example 106, N-((5-(5-methoxy-1H-benzo[d][1,2,3]triazol-1-yl)thiophen-2-yl)methyl)sulfamide], the IC50 is > 10 µM.

Turning to `COc1ccc2nn(Cc3ccc(NS(N)(=O)=O)cc3)nc2c1` [Example 109, Hydrochloride], the IC50 lay in the range of 1 to 10 µM.

Take `COc1ccc2nn(Cc3ccc(CNS(N)(=O)=O)cc3)nc2c1` [Example 110, N-(4-((5-methoxy-2H-benzo[d][1,2,3]triazole-2-yl)benzyl)sulfamide Hydrochloride]: the IC50 lay in the range of 1 to 10 µM.

As to `COc1ccc2c(c1)nnn2C1CCN(CCS(=O)(=O)F)CC1` [Example 111, 2-(4-(5-methoxy-1H-benzo[d][1,2,3]triazol-1-yl)piperidin-1-yl)ethane-1-sulfonyl Fluoride], the IC50 was > 10 µM.

For `COc1ccc2c(c1)nnn2-c1ccc(CNS(C)(=O)=O)cc1F` [Example 112, N-(3-fluoro-4-(5-methoxy-1H-benzo[d][1,2,3]triazol-1-yl)benzyl)methanesulfonamide], the IC50 is > 10 µM.

On to `CCS(=O)(=O)NCc1ccc(-n2nnc3cc(OC)ccc32)c(F)c1` [Example 113, N-(3-fluoro-4-(5-methoxy-1H-benzo[d][1,2,3]triazol-1-yl)benzyl)ethanesulfonamide], for which the IC50 was > 10 µM.

On to `COc1ccc2c(c1)nnn2-c1ccc(CNS(=O)(=O)c2ccc(C)cc2)cc1F` [Example 114, N-(3-fluoro-4-(5-methoxy-1H-benzo[d][1,2,3]triazol-1-yl)benzyl)-4-methylbenzenesulfonamide], for which the IC50 was > 10 µM.

As to `COc1ccc2c(c1)nnn2-c1ccc(C(=O)O)cc1F` [Example 116, 3-fluoro-4-(5-methoxy-1H-benzo[d][1,2,3]triazol-1-yl)benzoic Acid], the IC50 was > 10 µM.

In the case of `CCOP(=O)(NCc1ccc(-n2nnc3cc(OC)ccc32)c(F)c1)OCC` [Example 117, diethyl-(3-fluoro-4-(5-methoxy-1H-benzo[d][1,2,3]triazol-1-yl)benzyl)phosphoamidite], the IC50 is > 10 µM.

Consider `COc1ccc2c(c1)nnn2-c1ccc(P(=O)(O)O)cc1` [Example 118], for which the IC50 was > 10 µM.

As for `COc1ccc2c(c1)nnn2-c1ccc(CP(=O)(O)O)cc1` [Example 119], the IC50 is < 1 µM.

`COc1ccc2c(ccn2-c2ccc(CNS(N)(=O)=O)cc2)c1` [Example 122, N-(4-(5-methoxy-1H-indol-1-yl)benzyl)sulfamide]: the IC50 was > 10 µM.
